Results on three molecules are retold here after PubChem BioAssay AID1794828.

For the assay, the target named is Solute carrier family 2, facilitated glucose transporter member 4 (Homo sapiens) (UniProt P14672). Nature of the assay: GLUT4 glucose uptake inhibitors and substrates, dose response, cell-based, flow cytometry, glucose FRET sensor, HEK293 JumpIN TRex, wild type (AID 1794828). To be noted: HEK293 JumpIN SLC2A4-OE.

pIC50: −log10 of the molar value.

Chain of Solute carrier family 2, facilitated glucose transporter member 4 (Homo sapiens) (P14672 whole entry, looked up): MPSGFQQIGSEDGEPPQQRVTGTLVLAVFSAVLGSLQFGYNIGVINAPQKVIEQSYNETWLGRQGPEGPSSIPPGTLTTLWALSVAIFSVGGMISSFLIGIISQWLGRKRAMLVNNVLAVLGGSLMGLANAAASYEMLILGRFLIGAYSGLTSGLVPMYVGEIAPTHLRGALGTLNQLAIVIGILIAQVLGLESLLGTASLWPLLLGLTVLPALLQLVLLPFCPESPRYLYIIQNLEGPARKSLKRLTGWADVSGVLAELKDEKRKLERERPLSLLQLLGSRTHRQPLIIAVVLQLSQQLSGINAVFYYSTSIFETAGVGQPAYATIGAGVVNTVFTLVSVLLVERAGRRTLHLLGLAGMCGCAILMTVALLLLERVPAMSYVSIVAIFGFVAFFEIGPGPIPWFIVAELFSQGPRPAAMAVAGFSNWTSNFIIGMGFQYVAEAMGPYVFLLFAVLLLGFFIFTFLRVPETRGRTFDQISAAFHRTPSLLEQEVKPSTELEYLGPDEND

As a reminder, the pIC50 is −log10 of the IC50, conventionally taken in molar units. With `O=C(Oc1cccc(F)c1OC(=O)c1cccc(O)c1)c1cccc(O)c1`, the negative logarithm of the IC50 (pIC50) is 5.60. Consider `OC[C@H]1OC(O)[C@H](O)[C@@H](O)[C@@H]1O` (stereo partly drawn), for which the EC50 (substrate uptake, increase) is 860 µM. Turning to `Cc1c(NC(=O)c2cc(C(N)=O)nc3cc(F)ccc23)c(C(F)(F)F)nn1Cc1ccc(C#N)cc1`, the pIC50 was 5.26.
